Read-outs that look alike come from different tables or passages of the source.
What was measured:
activated human C1 = target: T1, activated human C1 (Homo sapiens, UniProt P09871); experiment: Test Code 026 (C1 inhibitor); type: biochemical; conditions: serial dilution assay, twofold dilutions; higher well number indicates higher activity
T1 construct: C1r and C1s cleaved to two-chain proteases
Excerpt: (§1) An active inhibitor protects C2 from C1 and C4; (ii) Test Code 035 (C3-C9 inhibitor): This test determines the ability of the late components of human complement (C3-C9) to lyse EAC 142 in the presence of appropriate dilutions of the test compound. An active inhibitor protects EAC 142 from lysis by human C3-C9; (iii) Test Code 036 (C-Shunt inhibitor): In this test human erythrocytes rendered fragile are lysed in autologous serum via the shunt pathway activated by cobra venom factor in the presence of appropriate dilutions of the test compound. Inhibition of the shunt pathway results in failure of lysis; (iv) Forssman Vasculitis Test: Here, the well known complement dependent lesion, Forssman vasculitis, is produced in guinea pigs by intradermal injection of rabbit anti-Forssman antiserum. […] Percent inhibition is calculated by comparison with simultaneous controls. […]

[1] = system: late components of human complement (C3-C9); experiment: Test Code 035 (C3-C9 inhibitor), lysis of EAC 142; type: biochemical; conditions: serial dilution assay, twofold dilutions; higher well number indicates higher activity
Excerpt: as §1

[2] = system: shunt pathway activated by cobra venom factor; experiment: Test Code 036 (C-Shunt inhibitor), lysis of human erythrocytes in autologous serum; type: biochemical; conditions: serial dilution assay, twofold dilutions; higher well number indicates higher activity
Excerpt: as §1

[3] = system: complement activity of sera; experiment: Guinea Pig Intraperitoneal Test (GPIP); type: in vivo; conditions: Cavia porcellus, ip, 200 mg./kg. i.p.
Excerpt: An active inhibitor protects C2 from C1 and C4; (ii) Test Code 035 (C3-C9 inhibitor): This test determines the ability of the late components of human complement (C3-C9) to lyse EAC 142 in the presence of appropriate dilutions of the test compound. An active inhibitor protects EAC 142 from lysis by human C3-C9; (iii) Test Code 036 (C-Shunt inhibitor): In this test human erythrocytes rendered fragile are lysed in autologous serum via the shunt pathway activated by cobra venom factor in the presence of appropriate dilutions of the test compound. Inhibition of the shunt pathway results in failure of lysis; (iv) Forssman Vasculitis Test: Here, the well known complement dependent lesion, Forssman vasculitis, is produced in guinea pigs by intradermal injection of rabbit anti-Forssman antiserum. The lesion is measured in terms of diameter, edema and hemorrhage and the extent to which a combined index of these is inhibited by prior intraperitoneal injection of the test compound at 200 mg./kg. is then reported, unless otherwise stated; (v) Forssman Shock Test: Lethal shock is produced in guinea pigs by an i.v. injection of anti-Forssman antiserum and the harmonic mean death time of treated guinea pigs is compared with that of simultaneous controls; (vi) Complement Level Reduction Test: In this test, the above dosed guinea pigs, or others, are bled for serum and the complement level is determined in undiluted serum by the capillary tube method of U.S. Pat. No. 3,876,376 and compared to undosed control guinea pigs; (vii) Cap 50 Test: Here, appropriate amounts of the test compound are added to a pool of guinea pig serum in vitro, after which the undiluted serum capillary tube assay referred to above is run. The concentration of compound inhibiting 50% is reported; (viii) Guinea Pig Intraperitoneal Test (GPIP): Guinea pigs weighing about 300 g. are dosed intraperitoneally (i.p.) with 200 mg./kg. of the test compound dissolved in saline and adjusted to pH 7-8. Approximately 0.4 ml. blood samples, taken by orbital sinus puncture 30 minutes and one hour after injections, are collected directly into centrifuge tubes; 5 ml. blood samples, taken by decapitation 2 hours after injection are collected directly into diSPo® beakers. The samples were allowed to clot, centrifuged, and the resultant sera are assayed for complement activity using the capillary complement assay. Percent inhibition is calculated by comparison with simultaneous controls. The results appear in Table I together with results of Test Code 026, 035, 036, Cap 50 and % Inhibition.

[4] = 0.5 h, serum 30 minutes after injection, read-out: In Vivo Activity (Guinea Pig) % Inhibition Intraperitoneal, 30 minutes
[5] = 1 h, serum 60 minutes after injection, read-out: In Vivo Activity (Guinea Pig) % Inhibition Intraperitoneal, 60 minutes
[6] = 2 h, serum 120 minutes after injection, read-out: In Vivo Activity (Guinea Pig) % Inhibition Intraperitoneal, 120 minutes

T1 sequence (P09871 16-688): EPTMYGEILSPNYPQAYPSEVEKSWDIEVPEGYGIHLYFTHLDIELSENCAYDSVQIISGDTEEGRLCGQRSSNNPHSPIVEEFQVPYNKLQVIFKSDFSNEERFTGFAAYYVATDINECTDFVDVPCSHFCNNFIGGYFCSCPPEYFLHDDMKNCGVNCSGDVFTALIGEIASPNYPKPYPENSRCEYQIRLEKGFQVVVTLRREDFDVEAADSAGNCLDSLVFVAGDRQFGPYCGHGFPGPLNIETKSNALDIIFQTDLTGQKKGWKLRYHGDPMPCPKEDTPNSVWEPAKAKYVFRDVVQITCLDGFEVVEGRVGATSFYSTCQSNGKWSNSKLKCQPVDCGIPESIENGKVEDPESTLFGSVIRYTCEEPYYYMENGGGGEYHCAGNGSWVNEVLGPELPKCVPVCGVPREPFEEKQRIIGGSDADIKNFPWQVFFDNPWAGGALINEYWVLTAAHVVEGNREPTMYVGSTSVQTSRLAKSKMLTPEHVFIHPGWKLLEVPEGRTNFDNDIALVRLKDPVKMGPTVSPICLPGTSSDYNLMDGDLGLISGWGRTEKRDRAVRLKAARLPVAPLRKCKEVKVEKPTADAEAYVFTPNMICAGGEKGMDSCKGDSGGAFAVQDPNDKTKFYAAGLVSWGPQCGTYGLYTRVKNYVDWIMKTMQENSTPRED
T1 sequence (P00736 18-705 partner): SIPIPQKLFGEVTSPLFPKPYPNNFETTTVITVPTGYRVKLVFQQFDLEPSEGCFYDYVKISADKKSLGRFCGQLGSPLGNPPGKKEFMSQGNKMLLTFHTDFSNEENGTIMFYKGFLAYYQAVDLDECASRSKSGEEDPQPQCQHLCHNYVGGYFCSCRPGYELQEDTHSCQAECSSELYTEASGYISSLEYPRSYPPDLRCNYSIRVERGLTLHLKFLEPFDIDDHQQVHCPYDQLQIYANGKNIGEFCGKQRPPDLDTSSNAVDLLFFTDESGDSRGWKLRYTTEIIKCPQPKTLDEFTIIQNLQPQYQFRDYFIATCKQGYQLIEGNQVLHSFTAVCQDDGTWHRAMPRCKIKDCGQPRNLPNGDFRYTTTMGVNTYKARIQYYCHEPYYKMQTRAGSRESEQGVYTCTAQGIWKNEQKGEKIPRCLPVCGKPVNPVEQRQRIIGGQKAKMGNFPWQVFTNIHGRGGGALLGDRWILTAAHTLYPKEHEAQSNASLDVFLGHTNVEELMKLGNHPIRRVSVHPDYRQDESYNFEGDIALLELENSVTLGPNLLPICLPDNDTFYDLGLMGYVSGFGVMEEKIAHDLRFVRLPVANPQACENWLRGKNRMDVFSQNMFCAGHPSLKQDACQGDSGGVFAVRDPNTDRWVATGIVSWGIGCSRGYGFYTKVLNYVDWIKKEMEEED
T1 sequence (P02745 23-245 partner): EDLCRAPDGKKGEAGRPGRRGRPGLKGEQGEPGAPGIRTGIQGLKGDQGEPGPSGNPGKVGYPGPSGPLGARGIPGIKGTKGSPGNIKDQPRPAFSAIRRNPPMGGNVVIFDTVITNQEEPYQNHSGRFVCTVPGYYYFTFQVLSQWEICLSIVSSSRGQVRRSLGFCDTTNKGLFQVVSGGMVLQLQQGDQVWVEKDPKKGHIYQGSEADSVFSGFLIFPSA
T1 sequence (P02746 28-253 partner): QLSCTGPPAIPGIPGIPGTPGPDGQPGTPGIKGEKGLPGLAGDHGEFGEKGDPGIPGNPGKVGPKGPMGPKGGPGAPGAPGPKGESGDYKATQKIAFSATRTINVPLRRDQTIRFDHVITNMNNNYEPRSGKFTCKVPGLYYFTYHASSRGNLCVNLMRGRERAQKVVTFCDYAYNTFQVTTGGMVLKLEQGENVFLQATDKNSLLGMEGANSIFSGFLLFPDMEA
T1 sequence (P02747 29-245 partner): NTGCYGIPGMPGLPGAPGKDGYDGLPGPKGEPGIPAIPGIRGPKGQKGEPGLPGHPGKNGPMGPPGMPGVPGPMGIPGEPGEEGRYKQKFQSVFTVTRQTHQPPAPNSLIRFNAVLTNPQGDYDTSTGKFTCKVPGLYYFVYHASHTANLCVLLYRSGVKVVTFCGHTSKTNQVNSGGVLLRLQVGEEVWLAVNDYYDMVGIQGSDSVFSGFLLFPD

SMILES	Cl 026 Wells (activated human C1)	C-Late 035 Wells [1]	Shunt Inhibition 036 Wells [2]	inhibition at 200 mg/kg [3, 4] [%]	inhibition at 200 mg/kg [3, 5] [%]	inhibition at 200 mg/kg [3, 6] [%]
O=C([O-])c1cc(NS(=O)(=O)c2cc(S(=O)(=O)Nc3cc(C(=O)[O-])cc(C(=O)[O-])c3)c3cc(S(=O)(=O)Nc4cc(C(=O)[O-])cc(C(=O)[O-])c4)cc(S(=O)(=O)Nc4cc(C(=O)[O-])cc(C(=O)[O-])c4)c3c2)cc(C(=O)[O-])c1.[Na+].[Na+].[Na+].[Na+].[Na+].[Na+].[Na+].[Na+] [5,5',5",5'"-[1,3,5,7-Naphthalenetetrayltetrakis(sulfonylimino)]-tetra-1,3-benzenedicarboxylic acid, octasodium salt]	+7 Wells	+2 Wells	+6 Wells	-66	-71	-76
O=C([O-])c1cc(NS(=O)(=O)c2cc(S(=O)(=O)Nc3cc(C(=O)[O-])c(C(=O)[O-])c(C(=O)[O-])c3)c3cc(S(=O)(=O)Nc4cc(C(=O)[O-])c(C(=O)[O-])c(C(=O)[O-])c4)cc(S(=O)(=O)Nc4cc(C(=O)[O-])c(C(=O)[O-])c(C(=O)[O-])c4)c3c2)cc(C(=O)[O-])c1C(=O)[O-].[Na+].[Na+].[Na+].[Na+].[Na+].[Na+].[Na+].[Na+].[Na+].[Na+].[Na+].[Na+] [5,5',5",5'"-[1,3,5,7-Naphthalenetetrayltetrakis[sulfonylimino)]-tetra-1,2,3-benzenetricarboxylic acid, dodecasodium salt]	+2 Wells	+4 Wells	+6 Wells	-80	-77	-85

Source: patent US4266077A, “Naphthalenetetrayltetrakis(sulfonylimino)-aryl multicarboxylic acids and salts thereof” (priority 1979, dated 1981)
